Data reported in patent publication US8859574B2 (IRM LLC, priority 2008, dated 2014).

biological target: T1, IGF-1R Ba/F3 (Homo sapiens, UniProt P08069); experiment: Ba/F3 Cell Viability Inhibition Assay (IGF-1R Ba/F3); assay type: cell-based, murine; details: Tel-TK transformed Ba/F3 cells, 48 hours, Britelite luminescence
T1 construct: fused on or other part: TEL- (or BCR-) IGF-1R in Ba/F3: the kinase part holds the site
Summary of the method: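 A 48 h compound treatment at 37 °C (3750 cells/well) was followed by Britelite luminescence to measure viability. Cells were Ba/F3 pro-B cells, IL-3-independent via TEL-fused IGF-1R kinase transduction. A logistic fit gave IC50 as 50% viability relative to DMSO control.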

T1 sequence (P08069 999-1274 limits assumed): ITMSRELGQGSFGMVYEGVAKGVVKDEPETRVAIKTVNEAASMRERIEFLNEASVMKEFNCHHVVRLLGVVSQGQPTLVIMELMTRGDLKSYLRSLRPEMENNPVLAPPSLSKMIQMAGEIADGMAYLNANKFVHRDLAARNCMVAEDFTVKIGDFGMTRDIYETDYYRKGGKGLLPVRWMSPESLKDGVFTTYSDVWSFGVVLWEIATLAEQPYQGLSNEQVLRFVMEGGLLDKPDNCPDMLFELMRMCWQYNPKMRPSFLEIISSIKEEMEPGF

Compound | IC50
Cc1cc(Nc2nc(Nc3cc(C)c(C4CCN(C(=O)[C@H]5CCCN5C(C)C)CC4)cc3F)ncc2Cl)n[nH]1 [Compound 135, (R)-(4-(4-(5-chloro-4-(5-methyl-1H-pyrazol-3-ylamino)pyrimidin-2-ylamino)-5-fluoro-2-methylphenyl)piperidin-1-yl)(1-isopropylpyrrolidin-2-yl)methanone] | 48 nM
CNC(=O)CN1CCC(c2cc(F)c(Nc3ncc(Cl)c(Nc4cc(C(F)(F)F)[nH]n4)n3)cc2C)CC1 [Compound 172, 2-(4-(4-(5-chloro-4-(5-(trifluoromethyl)-1H-pyrazol-3-ylamino)pyrimidin-2-ylamino)-5-fluoro-2-methylphenyl)piperidin-1-yl)-N-methylacetamide] | 69 nM
Cc1cc(C2CCNCC2)c(C)cc1Nc1ncc(Cl)c(Nc2ccc[nH]c2=O)n1 [Compound 158, 3-(5-chloro-2-(2,5-dimethyl-4-(piperidin-4-yl)phenylamino)pyrimidin-4-ylamino)pyridin-2(1H)-one] | 62 nM
Cc1cc(Nc2nc(Nc3cc(C)c(C4CCN(Cc5ccnnc5)CC4)cc3F)ncc2Cl)n[nH]1 [Compound 316, 5-chloro-N2-(2-fluoro-5-methyl-4-(1-(pyridazin-4-ylmethyl)piperidin-4-yl)phenyl)-N4-(5-methyl-1H-pyrazol-3-yl)pyrimidine-2,4-diamine] | 27 nM
Cc1cc(Nc2nc(Nc3cc(C)c(C4CCN(C(=O)[C@@H]5COCCN5C(C)C)CC4)cc3F)ncc2Cl)n[nH]1 [Compound 126, (S)-(4-(4-(5-chloro-4-(5-methyl-1H-pyrazol-3-ylamino)pyrimidin-2-ylamino)-5-fluoro-2-methylphenyl)piperidin-1-yl)(4-isopropylmorpholin-3-yl)methanone] | 29 nM
Cc1cc(Nc2nc(Nc3cc(C)c(C4CCN(C(=O)CCN(C)C)CC4)cc3F)ncc2Cl)n[nH]1 [Compound 78, 1-(4-(4-(5-chloro-4-(5-methyl-1H-pyrazol-3-ylamino)pyrimidin-2-ylamino)-5-fluoro-2-methylphenyl)piperidin-1-yl)-3-(dimethylamino)propan-1-one] | 138 nM
CCc1cc(Nc2ncc(Cl)c(Nc3cc(C)[nH]n3)n2)c(C)cc1C1CCN(CC(N)=O)CC1 [Compound 261, 2-(4-(4-(5-chloro-4-(5-methyl-1H-pyrazol-3-ylamino)pyrimidin-2-ylamino)-2-ethyl-5-methylphenyl)piperidin-1-yl)acetamide] | 27 nM
Cc1cc(Nc2nc(Nc3cc(C)c(C4CCN(C(=O)NCCN(C)C)CC4)cc3F)ncc2Cl)n[nH]1 [Compound 109, 4-(4-(5-chloro-4-(5-methyl-1H-pyrazol-3-ylamino)pyrimidin-2-ylamino)-5-fluoro-2-methylphenyl)-N-(2-(dimethylamino)ethyl)piperidine-1-carboxamide] | 60 nM
Cc1cc(Nc2nc(Nc3cc(C)c(C4CCN(CCCC(=O)N5CCOCC5)CC4)cc3F)ncc2Cl)n[nH]1 [Compound 246, 4-(4-(4-(5-Chloro-4-(5-methyl-1H-pyrazol-3-ylamino)pyrimidin-2-ylamino)-5-fluoro-2-methylphenyl)piperidin-1-yl)-1-morpholinobutan-1-one] | 58 nM
Cc1cc(Nc2nc(Nc3cc(C)c(C4CCN(C=O)CC4)cc3F)ncc2Cl)n[nH]1 [Compound 206, 4-(4-(5-chloro-4-(5-methyl-1H-pyrazol-3-ylamino)pyrimidin-2-ylamino)-5-fluoro-2-methylphenyl)piperidine-1-carbaldehyde] | 30 nM
Cc1cc(C2CCN(CC(N)=O)CC2)c(C)cc1Nc1ncc(Cl)c(Nc2cc(C3CC3)[nH]n2)n1 [Compound 35, 2-(4-(4-(5-chloro-4-(5-cyclopropyl-1H-pyrazol-3-ylamino)pyrimidin-2-ylamino)-2,5-dimethylphenyl)piperidin-1-yl)acetamide] | 11 nM
CNC(=O)CN1CCC(c2cc(C)c(Nc3ncc(Cl)c(Nc4cc(C5CC5)[nH]n4)n3)cc2C)CC1 [Compound 33, 2-(4-(4-(5-chloro-4-(5-cyclopropyl-1H-pyrazol-3-ylamino)pyrimidin-2-ylamino)-2,5-dimethylphenyl)piperidin-1-yl)-N-methylacetamide] | 6 nM
Cc1cc(Nc2nc(Nc3cc(C)c(C4CCNCC4)cc3C)ncc2C)n[nH]1 [Compound 178, N2-(2,5-dimethyl-4-(piperidin-4-yl)phenyl)-5-methyl-N4-(5-methyl-1H-pyrazol-3-yl)pyrimidine-2,4-diamine] | 3230 nM
Cc1cc(Nc2nc(Nc3cc(C)c(C4CCN(C(=O)CN5CCOCC5)CC4)cc3C)ncc2Cl)n[nH]1 [Compound 102, 1-(4-(4-(5-chloro-4-(5-methyl-1H-pyrazol-3-ylamino)pyrimidin-2-ylamino)-2,5-dimethylphenyl)piperidin-1-yl)-2-morpholinoethanone] | 9 nM
Cc1cc(Nc2nc(Nc3cc(C)c(C4CCN(C(=O)C5CCNCC5)CC4)cc3F)ncc2Cl)n[nH]1 [Compound 115, (4-(4-(5-chloro-4-(5-methyl-1H-pyrazol-3-ylamino)pyrimidin-2-ylamino)-5-fluoro-2-methylphenyl)piperidin-1-yl)(piperidin-4-yl)methanone] | 1570 nM
Cc1cc(Nc2nc(Nc3cc(C)c(C4CCN(C5CCC(=O)CC5)CC4)cc3F)ncc2Cl)n[nH]1 [Compound 290, 4-(4-(4-(5-chloro-4-(5-methyl-1H-pyrazol-3-ylamino)pyrimidin-2-ylamino)-5-fluoro-2-methylphenyl)piperidin-1-yl)cyclohexanone] | 23 nM
Cc1cc(Nc2nc(Nc3cc(C(F)(F)F)c(C4CCN(C)CC4)cc3F)ncc2Cl)n[nH]1 [Compound 216, 5-chloro-N2-(2-fluoro-4-(1-methylpiperidin-4-yl)-5-(trifluoromethyl)phenyl)-N4-(5-methyl-1H-pyrazol-3-yl)pyrimidine-2,4-diamine] | 47 nM
Cc1cc(Nc2nc(Nc3cc(C)c(C4CCN(C(=O)C(C)N)CC4)cc3F)ncc2Cl)n[nH]1 (stereo not shown) [Compound 86, 2-amino-1-(4-(4-(5-chloro-4-(5-methyl-1H-pyrazol-3-ylamino)pyrimidin-2-ylamino)-5-fluoro-2-methylphenyl)piperidin-1-yl)propan-1-one] | 141 nM
Cc1cc(Nc2nc(Nc3cc(C)c(C4CCN(Cc5noc(C(C)(C)C)n5)CC4)cc3F)ncc2Cl)n[nH]1 [Compound 267, N2-(4-(1-((5-tert-butyl-1,2,4-oxadiazol-3-yl)methyl)piperidin-4-yl)-2-fluoro-5-methylphenyl)-5-chloro-N4-(5-methyl-1H-pyrazol-3-yl)pyrimidine-2,4-diamine] | 77 nM
Cc1cc(Nc2nc(Nc3cc(C)c(C4CCN(C(=O)c5c(C)noc5C)CC4)cc3F)ncc2Cl)n[nH]1 [Compound 137, (4-(4-(5-chloro-4-(5-methyl-1H-pyrazol-3-ylamino)pyrimidin-2-ylamino)-5-fluoro-2-methylphenyl)piperidin-dimethylisoxazol-4-yl)methanone] | 18 nM
Cc1cc(Nc2nc(Nc3cc(C)c(C4CCN(C(=O)[C@H]5CCCN5C)CC4)cc3F)ncc2Cl)n[nH]1 [Compound 134, (R)-(4-(4-(5-chloro-4-(5-methyl-1H-pyrazol-3-ylamino)pyrimidin-2-ylamino)-5-fluoro-2-methylphenyl)piperidin-1-yl)(1-methylpyrrolidin-2-yl)methanone] | 21 nM
Cc1cc(Nc2nc(Nc3cc(C)c(C4CCN(C(=O)[C@H]5C[C@@H](O)CN5C)CC4)cc3C)ncc2Cl)n[nH]1 [Compound 123, (4-(4-(5-chloro-4-(5-methyl-1H-pyrazol-3-ylamino)pyrimidin-2-ylamino)-2,5-dimethylphenyl)piperidin-1-yl)((2R,4R)-4-hydroxy-1-methylpyrrolidin-2-yl)methanone] | 48 nM
Cc1cc(Nc2nc(Nc3cc(C)c(C4CCN(C(=O)CCN(C)C)CC4)cc3C)ncc2Cl)n[nH]1 [Compound 239, 1-(4-(4-(5-chloro-4-(5-methyl-1H-pyrazol-3-ylamino)pyrimidin-2-ylamino)-2,5-dimethylphenyl)piperidin-1-yl)-3-(dimethylamino)propan-1-one] | 73 nM
Cc1cc(Nc2nc(Nc3cc(C)c(C4CCN(CCc5nc(C(C)C)no5)CC4)cc3C)ncc2Cl)n[nH]1 [Compound 269, 5-Chloro-N2-(4-(1-(2-(3-isopropyl-1,2,4-oxadiazol-5-yl)ethyl)piperidin-4-yl)-2,5-dimethylphenyl)-N4-(5-methyl-1H-pyrazol-3-yl)pyrimidine-2,4-diamine] | 39 nM
Cc1cc(Nc2nc(Nc3cc(C)c(N4CCNCC4=O)cc3C)ncc2Cl)n[nH]1 [Compound 155, 1-(4-(5-chloro-4-(5-methyl-1H-pyrazol-3-ylamino)pyrimidin-2-ylamino)-2,5-dimethylphenyl)piperazin-2-one] | 1650 nM
CCNC1(C(=O)N2CCC(c3cc(F)c(Nc4ncc(Cl)c(Nc5cc(C)[nH]n5)n4)cc3C)CC2)CC1 [Compound 169, (4-(4-(5-chloro-4-(5-methyl-1H-pyrazol-3-ylamino)pyrimidin-2-ylamino)-5-fluoro-2-methylphenyl)piperidin-1-yl)(1-(ethylamino)cyclopropyl)methanone] | 4 nM
CCN1CCC(c2cc(C)c(Nc3ncc(C(F)(F)F)c(Nc4cc(C)[nH]n4)n3)cc2C)CC1 [Compound 221, N2-(4-(1-ethylpiperidin-4-yl)-2,5-dimethylphenyl)-N4-(5-methyl-1H-pyrazol-3-yl)-5-(trifluoromethyl)pyrimidine-2,4-diamine] | 34 nM
Cc1cc(Nc2nc(Nc3cc(C)c(C4CCN(Cc5nc(C(C)C)no5)CC4)cc3C)ncc2Cl)n[nH]1 [Compound 260, 5-chloro-N2-(4-(1-((3-isopropyl-1,2,4-oxadiazol-5-yl)methyl)piperidin-4-yl)-2,5-dimethylphenyl)-N4-(5-methyl-1H-pyrazol-3-yl)pyrimidine-2,4-diamine] | 18 nM
